compound: N#CC1(c2ccc(NC(=O)c3cccnc3NCc3ccncc3)cc2)CCCC1 [Apatinib] + CCNC(=O)c1noc(-c2cc(C(C)C)c(O)cc2O)c1-c1ccc(CN2CCOCC2)cc1 [Luminespib] (partner 0.01 µM); assay: relative viability (nuclei count vs DMSO), 5 days (fraction); higher = more cells survive; conditions: first compound 8 µM
Method in brief: (§1)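 Dosing by pin tool came one day after lung cancer cell lines were seeded in 1536-well plates, using either one drug or a fixed anchor-drug dose plus five library-drug doses (not always all listed) in √10 steps. After 5 days, nuclei were counted on 4× images. Relative viability is treated-well nuclei count divided by vehicle-well nuclei count, and values are medians of duplicate plates.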

| Cell Line | relative viability |
| --- | --- |
| NCI-H2405 | 0.491 |
| NCI-H3122 | 0.0871 |

compound: N#CC1(c2ccc(NC(=O)c3cccnc3NCc3ccncc3)cc2)CCCC1 [Apatinib] + CC(=O)Nc1cccc(-n2c(=O)n(C3CC3)c(=O)c3c(Nc4ccc(I)cc4F)n(C)c(=O)c(C)c32)c1 [Trametinib] (partner 0.02 µM); assay: as above; conditions: first compound 0.08 µM
Method in brief: as §1

| Cell Line | relative viability |
| --- | --- |
| NCI-H322M | 0.506 |
| NCI-H358 | 0.144 |
| NCI-H441 | 0.52 |
| NCI-H520 | 0.666 |
| NCI-H596 | 0.89 |
| NCI-H647 | 0.547 |
| NCI-H650 | 0.98 |
| NCI-H661 | 0.606 |
| NCI-H727 | 0.386 |
| NCI-H838 | 0.626 |
| NCI-H1355 | 0.422 |
| NCI-H1395 | 1.03 |
| NCI-H1437 | 0.526 |
| NCI-H1651 | 0.84 |
| NCI-H1666 | 0.843 |
| NCI-H1734 | 0.689 |

| Cell Line | relative viability |
| --- | --- |
| NCI-H1755 | 0.826 |
| NCI-H1792 | 0.433 |
| NCI-H1793 | 0.432 |
| NCI-H1915 | 0.321 |
| NCI-H1944 | 0.395 |
| NCI-H1975 | 0.352 |
| NCI-H1993 | 0.436 |
| NCI-H2009 | 0.341 |
| NCI-H2023 | 0.635 |
| NCI-H2085 | 0.608 |
| NCI-H2087 | 0.188 |
| NCI-H2126 | 0.605 |
| NCI-H2228 | 0.405 |
| NCI-H2347 | 0.294 |
| NCI-H2405 | 0.594 |
| NCI-H3122 | 0.251 |

same assay, conditions: first compound 0.253 µM

| Cell Line | relative viability |
| --- | --- |
| NCI-H322M | 0.651 |
| NCI-H358 | 0.12 |
| NCI-H441 | 0.46 |
| NCI-H520 | 0.66 |
| NCI-H596 | 0.831 |
| NCI-H647 | 0.501 |
| NCI-H650 | 0.918 |
| NCI-H661 | 0.594 |
| NCI-H838 | 0.573 |
| NCI-H1355 | 0.444 |
| NCI-H1395 | 1.05 |
| NCI-H1437 | 0.532 |
| NCI-H1651 | 0.874 |
| NCI-H1666 | 0.942 |
| NCI-H1734 | 0.712 |
| NCI-H1755 | 0.746 |

| Cell Line | relative viability |
| --- | --- |
| NCI-H1792 | 0.436 |
| NCI-H1793 | 0.449 |
| NCI-H1915 | 0.315 |
| NCI-H1944 | 0.429 |
| NCI-H1975 | 0.3 |
| NCI-H1993 | 0.579 |
| NCI-H2009 | 0.285 |
| NCI-H2023 | 0.647 |
| NCI-H2085 | 0.53 |
| NCI-H2087 | 0.169 |
| NCI-H2126 | 0.562 |
| NCI-H2228 | 0.568 |
| NCI-H2347 | 0.228 |
| NCI-H2405 | 0.625 |
| NCI-H3122 | 0.234 |

same assay, conditions: first compound 0.8 µM

| Cell Line | relative viability |
| --- | --- |
| NCI-H322M | 0.494 |
| NCI-H358 | 0.179 |
| NCI-H441 | 0.434 |
| NCI-H520 | 0.787 |
| NCI-H596 | 0.803 |
| NCI-H647 | 0.457 |
| NCI-H650 | 1.02 |
| NCI-H661 | 0.571 |
| NCI-H727 | 0.386 |
| NCI-H838 | 0.473 |
| NCI-H1355 | 0.354 |
| NCI-H1395 | 0.915 |
| NCI-H1437 | 0.433 |
| NCI-H1651 | 0.821 |
| NCI-H1666 | 0.783 |
| NCI-H1734 | 0.682 |

| Cell Line | relative viability |
| --- | --- |
| NCI-H1755 | 0.725 |
| NCI-H1792 | 0.349 |
| NCI-H1793 | 0.443 |
| NCI-H1915 | 0.311 |
| NCI-H1944 | 0.318 |
| NCI-H1975 | 0.417 |
| NCI-H1993 | 0.538 |
| NCI-H2009 | 0.31 |
| NCI-H2023 | 0.492 |
| NCI-H2085 | 0.39 |
| NCI-H2087 | 0.205 |
| NCI-H2126 | 0.569 |
| NCI-H2228 | 0.646 |
| NCI-H2347 | 0.249 |
| NCI-H2405 | 0.599 |
| NCI-H3122 | 0.247 |

same assay, conditions: first compound 2.53 µM

| Cell Line | relative viability |
| --- | --- |
| NCI-H322M | 0.545 |
| NCI-H358 | 0.159 |
| NCI-H441 | 0.442 |
| NCI-H520 | 0.485 |
| NCI-H596 | 0.696 |
| NCI-H647 | 0.439 |
| NCI-H650 | 0.963 |
| NCI-H661 | 0.532 |
| NCI-H727 | 0.416 |
| NCI-H838 | 0.49 |
| NCI-H1355 | 0.367 |
| NCI-H1395 | 0.965 |
| NCI-H1437 | 0.314 |
| NCI-H1651 | 0.75 |
| NCI-H1666 | 0.81 |
| NCI-H1734 | 0.664 |

| Cell Line | relative viability |
| --- | --- |
| NCI-H1755 | 0.825 |
| NCI-H1792 | 0.342 |
| NCI-H1793 | 0.34 |
| NCI-H1915 | 0.302 |
| NCI-H1944 | 0.403 |
| NCI-H1975 | 0.424 |
| NCI-H1993 | 0.493 |
| NCI-H2009 | 0.25 |
| NCI-H2023 | 0.489 |
| NCI-H2085 | 0.576 |
| NCI-H2087 | 0.195 |
| NCI-H2126 | 0.538 |
| NCI-H2228 | 0.416 |
| NCI-H2347 | 0.291 |
| NCI-H2405 | 0.527 |
| NCI-H3122 | 0.181 |

same assay, conditions: first compound 8 µM

| Cell Line | relative viability |
| --- | --- |
| NCI-H322M | 0.425 |
| NCI-H358 | 0.131 |
| NCI-H441 | 0.503 |
| NCI-H520 | 0.325 |
| NCI-H596 | 0.722 |
| NCI-H647 | 0.315 |
| NCI-H650 | 1.02 |
| NCI-H661 | 0.463 |
| NCI-H727 | 0.342 |
| NCI-H838 | 0.467 |
| NCI-H1355 | 0.314 |
| NCI-H1395 | 0.965 |
| NCI-H1437 | 0.348 |
| NCI-H1651 | 0.684 |
| NCI-H1666 | 0.681 |
| NCI-H1734 | 0.618 |
| NCI-H1755 | 0.652 |
| NCI-H1792 | 0.302 |
| NCI-H1793 | 0.301 |
| NCI-H1915 | 0.286 |
| NCI-H1944 | 0.29 |
| NCI-H1975 | 0.36 |
| NCI-H1993 | 0.461 |
| NCI-H2009 | 0.229 |
| NCI-H2023 | 0.399 |
| NCI-H2085 | 0.426 |
| NCI-H2087 | 0.191 |
| NCI-H2126 | 0.415 |
| NCI-H2228 | 0.549 |

From the supplement of paper PMC10307832
